From ChEMBL document CHEMBL1201861, “Genomics of Drug Sensitity in Cancer screening data, Wellcome Trust Sanger Institute”

Legend:
Test in all cases: cells
NCI-H2030 = assay type: functional, cell-based; details: Homo sapiens;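 further: growth inhibition of human NCI-H2030 cells, read out by a cell viability assay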
Description: SANGER: Inhibition of human NCI-H2030 cell growth in a cell viability assay.

NCI-H2347 = assay type: functional, cell-based; details: Homo sapiens;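 further: growth inhibition of the cell line, read out with a cell viability assay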
Description: SANGER: Inhibition of human NCI-H2347 cell growth in a cell viability assay.

ACHN = assay type: functional, cell-based; details: Homo sapiens;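 further: cell viability read-out used to gauge how strongly growth of human ACHN cells is suppressed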
Description: SANGER: Inhibition of human ACHN cell growth in a cell viability assay.

KYSE-180 = assay type: functional, cell-based; details: Homo sapiens;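 further: growth inhibition of KYSE-180 cells, read out with a cell viability assay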
Description: SANGER: Inhibition of human KYSE-180 cell growth in a cell viability assay.

NCI-H441 = assay type: functional, cell-based; details: Homo sapiens;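 further: growth inhibition of NCI-H441 cells, read out with a cell viability assay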
Description: SANGER: Inhibition of human NCI-H441 cell growth in a cell viability assay.

COLO-679 = assay type: functional, cell-based; details: Homo sapiens
Description: SANGER: Inhibition of human COLO-679 cell growth in a cell viability assay.

LK-2 = assay type: functional, cell-based; details: Homo sapiens;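 further: growth inhibition of LK-2 cells, read out with a viability assay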
Description: SANGER: Inhibition of human LK-2 cell growth in a cell viability assay.

FaDu = assay type: functional, cell-based; details: Homo sapiens;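 further: cell viability readout of growth inhibition in FaDu cells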
Description: SANGER: Inhibition of human FADU cell growth in a cell viability assay.

CP66-MEL = assay type: functional, cell-based; details: Homo sapiens;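 further: growth inhibition of CP66-MEL cells determined in a cell viability assay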
Description: SANGER: Inhibition of human CP66-MEL cell growth in a cell viability assay.

NCI-H2009 = assay type: functional, cell-based; details: Homo sapiens;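 further: cell viability assay measuring inhibition of NCI-H2009 cell growth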
Description: SANGER: Inhibition of human NCI-H2009 cell growth in a cell viability assay.

T98G = assay type: functional, cell-based; details: Homo sapiens;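 further: growth inhibition of T98G cells, read out by a cell viability assay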
Description: SANGER: Inhibition of human T98G cell growth in a cell viability assay.

NCI-H1792 = assay type: functional, cell-based; details: Homo sapiens;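 further: growth inhibition of human NCI-H1792 cells, read out as cell viability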
Description: SANGER: Inhibition of human NCI-H1792 cell growth in a cell viability assay.

HuP-T3 = assay type: functional, cell-based; details: Homo sapiens;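 further: HuP-T3 cell growth inhibition, read out with a cell viability assay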
Description: SANGER: Inhibition of human HuP-T3 cell growth in a cell viability assay.

BXPC-3 = assay type: functional, cell-based; details: Homo sapiens;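 further: growth inhibition of human BxPC-3 cells, read out by a cell viability assay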
Description: SANGER: Inhibition of human BxPC-3 cell growth in a cell viability assay.

COLO-741 = assay type: functional, cell-based; details: Homo sapiens
Description: SANGER: Inhibition of human COLO-741 cell growth in a cell viability assay.

CAL-51 = assay type: functional, cell-based; details: Homo sapiens;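 further: human CAL-51 cell line, growth inhibition read out via a cell viability assay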
Description: SANGER: Inhibition of human CAL-51 cell growth in a cell viability assay.

SCC-25 = assay type: functional, cell-based; details: Homo sapiens;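 further: growth inhibition of SCC-25 cells, measured with a cell viability assay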
Description: SANGER: Inhibition of human SCC-25 cell growth in a cell viability assay.

J82 = assay type: functional, cell-based; details: Homo sapiens;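 further: growth inhibition of J82 cells, read out with a cell viability assay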
Description: SANGER: Inhibition of human J82 cell growth in a cell viability assay.

NCI-H2405 = assay type: functional, cell-based; details: Homo sapiens;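 further: growth inhibition of the human cell line, read out with a cell viability assay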
Description: SANGER: Inhibition of human NCI-H2405 cell growth in a cell viability assay.

LoVo = assay type: functional, cell-based; details: Homo sapiens;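 further: growth inhibition of human LoVo cells, read out with a cell viability assay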
Description: SANGER: Inhibition of human LoVo cell growth in a cell viability assay.

HCC70 = assay type: functional, cell-based; details: Homo sapiens;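 further: cell viability assay measuring how strongly the compound suppresses proliferation of HCC70 cells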
Description: SANGER: Inhibition of human HCC70 cell growth in a cell viability assay.

NB7 = assay type: functional, cell-based, Homo sapiens; details: Homo sapiens, NB7;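 further: growth inhibition of NB7 cells, read out with a cell viability assay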
Description: SANGER: Inhibition of human NB7 cell growth in a cell viability assay.

YAPC = assay type: functional, cell-based; details: Homo sapiens;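 further: growth inhibition of YAPC cells, measured with a cell viability assay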
Description: SANGER: Inhibition of human YAPC cell growth in a cell viability assay.

OVCAR-3 = assay type: functional, cell-based; details: Homo sapiens;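 further: growth inhibition of human OVCAR-3 cells, determined by a cell viability assay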
Description: SANGER: Inhibition of human OVCAR-3 cell growth in a cell viability assay.

SK-HEP1 = assay type: functional, cell-based, SK-HEP-1; details: Homo sapiens;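 further: cell viability readout used to quantify reduction in proliferation of human SK-HEP-1 cells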
Description: SANGER: Inhibition of human SK-HEP-1 cell growth in a cell viability assay.

HuO-3N1 = assay type: functional, cell-based; details: Homo sapiens;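 further: cell viability readout used to measure how strongly compounds suppress proliferation of human HuO-3N1 cells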
Description: SANGER: Inhibition of human HuO-3N1 cell growth in a cell viability assay.

Ca-Ski = assay type: functional, cell-based; details: Homo sapiens;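 further: cell viability assay measuring inhibition of Ca-Ski cell growth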
Description: SANGER: Inhibition of human Ca-Ski cell growth in a cell viability assay.

A2058 = assay type: functional, cell-based; details: Homo sapiens;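 further: reduction of A2058 cell growth, read out with a viability assay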
Description: SANGER: Inhibition of human A2058 cell growth in a cell viability assay.

A 172 = assay type: functional, cell-based; details: Homo sapiens;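 further: growth inhibition of A172 cells, measured with a cell viability readout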
Description: SANGER: Inhibition of human A172 cell growth in a cell viability assay.

A204 = assay type: functional, cell-based; details: Homo sapiens;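 further: growth inhibition of human A204 cells, read out with a cell viability assay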
Description: SANGER: Inhibition of human A204 cell growth in a cell viability assay.

EFM-19 = assay type: functional, cell-based; details: Homo sapiens;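 further: growth inhibition of human EFM-19 cells, measured in a cell viability assay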
Description: SANGER: Inhibition of human EFM-19 cell growth in a cell viability assay.

HOP-92 = assay type: functional, cell-based; details: Homo sapiens;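 further: cell viability readout, with IC50 reflecting inhibition of HOP-92 cell growth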
Description: SANGER: Inhibition of human HOP-92 cell growth in a cell viability assay.

CAKI-1 = assay type: functional, cell-based; details: Homo sapiens;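 further: growth inhibition of CAKI-1 cells, measured by a cell viability assay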
Description: SANGER: Inhibition of human CAKI-1 cell growth in a cell viability assay.

GMS-10 = assay type: functional, cell-based; details: Homo sapiens;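 further: growth inhibition of GMS-10 cells, read out as cell viability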
Description: SANGER: Inhibition of human GMS-10 cell growth in a cell viability assay.

HCC1954 = assay type: functional, cell-based; details: Homo sapiens;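 further: growth inhibition of human HCC1954 cells, read out with a cell viability assay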
Description: SANGER: Inhibition of human HCC1954 cell growth in a cell viability assay.

Calu-3 = assay type: functional, cell-based; details: Homo sapiens;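 further: growth inhibition of human Calu-3 cells, determined with a cell viability assay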
Description: SANGER: Inhibition of human Calu-3 cell growth in a cell viability assay.

SAOS-2 = assay type: functional, cell-based; details: Homo sapiens;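 further: growth inhibition of human Saos-2 cells determined by a cell viability assay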
Description: SANGER: Inhibition of human Saos-2 cell growth in a cell viability assay.

KYSE-510 = assay type: functional, cell-based; details: Homo sapiens;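 further: cell viability readout used to measure how strongly growth of the cell line is suppressed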
Description: SANGER: Inhibition of human KYSE-510 cell growth in a cell viability assay.

COLO-792 = assay type: functional, cell-based; details: Homo sapiens
Description: SANGER: Inhibition of human COLO-792 cell growth in a cell viability assay.

UMUC3 = assay type: functional, cell-based; details: Homo sapiens;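 further: growth inhibition of human UM-UC-3 cells, read out with a cell viability assay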
Description: SANGER: Inhibition of human UM-UC-3 cell growth in a cell viability assay.

M14 = assay type: functional, cell-based; details: Homo sapiens;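 further: growth inhibition of M14 cells, read out with a cell viability assay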
Description: SANGER: Inhibition of human M14 cell growth in a cell viability assay.

HT-29 = assay type: functional, cell-based; details: Homo sapiens;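 further: growth inhibition of human HT-29 cells, read out by a cell viability assay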
Description: SANGER: Inhibition of human HT-29 cell growth in a cell viability assay.

KP-4 = assay type: functional, cell-based; details: Homo sapiens;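 further: human KP-4 cells, with growth inhibition read out through a cell viability assay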
Description: SANGER: Inhibition of human KP-4 cell growth in a cell viability assay.

ABC-1 = assay type: functional, cell-based; details: Homo sapiens;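 further: growth inhibition of human ABC-1 cells, read out by a cell viability assay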
Description: SANGER: Inhibition of human ABC-1 cell growth in a cell viability assay.

MDA-MB-415 = assay type: functional, cell-based; details: Homo sapiens
NCI-H1703 = assay type: functional, cell-based; details: Homo sapiens;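 further: growth inhibition of NCI-H1703 cells, read out via a cell viability assay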
Description: SANGER: Inhibition of human NCI-H1703 cell growth in a cell viability assay.

Measured: IC50

NC(=O)c1ccc(N(C(N)=O)c2c(F)cccc2F)nc1-c1ccc(F)cc1F [VX-702]
> 2 µM: NCI-H2030 | NCI-H2347 | ACHN | KYSE-180 | NCI-H441 | COLO-679 | LK-2 | FaDu | CP66-MEL | NCI-H2009 | T98G | NCI-H1792 | HuP-T3 | BXPC-3 | COLO-741 | CAL-51 | SCC-25 | J82 | NCI-H2405 | LoVo | HCC70 | NB7 | YAPC | OVCAR-3 | SK-HEP1 | HuO-3N1 | Ca-Ski | A2058 | A 172 | A204 | EFM-19 | HOP-92 | CAKI-1 | GMS-10 | HCC1954 | Calu-3 | SAOS-2 | KYSE-510 | COLO-792 | UMUC3 | M14 | HT-29 | KP-4 | ABC-1 | MDA-MB-415 | NCI-H1703

NC(=O)Nc1cc(-c2cccc(F)c2)sc1C(=O)N[C@H]1CCCNC1 [AZD-7762]
1.46 µM: LK-2 | KP-4
0.388 µM: Ca-Ski
0.941 µM: HuO-3N1
0.746 µM: SAOS-2
0.134 µM: ACHN
0.162 µM: LoVo
0.0871 µM: HuP-T3
0.274 µM: OVCAR-3
0.287 µM: CAKI-1
0.894 µM: HT-29
0.412 µM: FaDu
0.402 µM: KYSE-180
1.24 µM: NCI-H2347
1.48 µM: EFM-19
1.02 µM: NCI-H2030
0.00643 µM: NCI-H1703
> 2 µM: NCI-H441 | CP66-MEL | NCI-H2009 | COLO-741 | SCC-25 | NCI-H2405 | NB7 | YAPC | SK-HEP1 | HCC1954 | Calu-3 | COLO-792 | MDA-MB-415
0.514 µM: CAL-51
1.35 µM: GMS-10
0.451 µM: A2058
0.246 µM: T98G
0.261 µM: ABC-1
0.942 µM: NCI-H1792
0.293 µM: HOP-92
0.307 µM: HCC70
0.145 µM: M14
0.692 µM: A 172
0.0909 µM: COLO-679
0.805 µM: J82
1.31 µM: BXPC-3
1.58 µM: KYSE-510
0.00856 µM: A204
0.903 µM: UMUC3

Cc1ccc(-n2nc(C(C)(C)C)cc2NC(=O)Nc2ccc(OCCN3CCOCC3)c3ccccc23)cc1 [DORAMAPIMOD]
> 10 µM: NCI-H2030 | NCI-H2347 | ACHN | KYSE-180 | NCI-H441 | COLO-679 | LK-2 | FaDu | CP66-MEL | NCI-H2009 | T98G | NCI-H1792 | HuP-T3 | BXPC-3 | COLO-741 | CAL-51 | SCC-25 | J82 | NCI-H2405 | LoVo | HCC70 | NB7 | YAPC | OVCAR-3 | SK-HEP1 | HuO-3N1 | Ca-Ski | A2058 | A 172 | A204 | EFM-19 | HOP-92 | CAKI-1 | GMS-10 | HCC1954 | Calu-3 | SAOS-2 | KYSE-510 | COLO-792 | UMUC3 | M14 | HT-29 | KP-4 | ABC-1 | MDA-MB-415 | NCI-H1703

CC1=C(/C=C/C(C)=C/C=C/C(C)=C/C(=O)O)C(C)(C)CCC1 [TRETINOIN]
> 10 µM: NCI-H2030 | NCI-H2347 | ACHN | NCI-H441 | COLO-679 | LK-2 | FaDu | CP66-MEL | NCI-H2009 | T98G | NCI-H1792 | HuP-T3 | BXPC-3 | COLO-741 | CAL-51 | SCC-25 | J82 | NCI-H2405 | LoVo | HCC70 | NB7 | YAPC | OVCAR-3 | SK-HEP1 | Ca-Ski | A2058 | A 172 | A204 | EFM-19 | HOP-92 | CAKI-1 | GMS-10 | HCC1954 | Calu-3 | SAOS-2 | KYSE-510 | COLO-792 | UMUC3 | M14 | HT-29 | KP-4 | ABC-1 | MDA-MB-415 | NCI-H1703
6.7 µM: KYSE-180
0.832 µM: HuO-3N1
